The subject of assay [1] is gesunde männliche Probanden. Description: Double-blind 4-way crossover study, 7-day treatment periods, blood pressure and pulse in healthy volunteers. The format is in vivo, human. To be noted: for Diastolische Blutdruckwerte am 7. Versuchstag, Mittelwert / Systolische Blutdruckwerte am 7. Versuchstag, Mittelwert: mean of 6 Probanden, day 7, lying, 2,5 mg Cilazapril and/or 120 mg Propranolol daily; for Abfall des systolischen und diastolischen Blutdrucks: Monotherapie (2,5 mg Cilazapril or 120 mg Propranolol), day 7, healthy volunteers. How it is done: […] Proband […], wurde vor Beginn der Studie von jedem Probanden die […], und man […] Kontrollen verbunden war: […] Die Probanden hatten jeweils an den Versuchstagen 0 bis 6 […] zu […] Abend […] noch geraucht. Nach 5-minütiger Ruhepause im Sitzen wurden systolischer und diastolischer Blutdruck und Puls […] die Probanden […], und man […] unter Ueberwachung die Medikation mit 100 ml Leitungswasser und […] Hause. Am […] Probanden […]; die Untersuchungen […] bei 15° erhobenem Oberkörper durchgeführt. Nach jeweils 15-minütiger […] und Puls zu den Zeitpunkten -2, 1, 2, 6, 8 und 24 Stunden gemessen.

Assay [2] deals with Patienten mit einer essentiellen Hypertonie. Description: Crossover study, 3-week treatment periods, sitting blood pressure in hypertensive patients. The format is in vivo, human. Conditions: 3 weeks treatment, 2,5 mg Cilazapril and/or 120 mg Propranolol; for mittlere Senkung des diastolischen Blutdrucks: 2 Stunden after dosing, sitting, 13 patients; for Ansprechen (Senkung des diastolischen Blutdrucks auf unter 90 mmHg): number of responders. As to the method: B) Zehn männliche und drei weibliche Patienten mit einer essentiellen Hypertonie im Alter von 43-62 Jahren und mit einem Gewicht von 64-106 kg nahmen an dieser Crossover-Studie teil, die folgende drei Behandlungsabschnitte von jeweils 3 Wochen umfasste, wobei die Abschnitte (1) und (2) je nach Gruppe vertauscht waren: • (1) 2,5 mg Cilazapril • (2) 120 mg Propranolol • (3) 2,5 mg Cilazapril plus 120 mg Propranolol.
Mit Ausnahme von drei Patienten erhielt keiner während mindestens 2 Wochen vor Beginn einer zweiwöchigen Placebo-Behandlung eine blutdrucksenkende Medikation. […] Dann wurden die Patienten wahlweise in zwei Gruppen eingeteilt, wobei die eine Gruppe zuerst mit Cilazapril und die andere zuerst mit Propranolol behandelt wurde. Nach der dreiwöchigen Behandlungsdauer wurde die Medikation in den beiden Gruppen ausgetauscht. Während der Behandlungsabschnitte wurden alle Messungen 2 Stunden nach Verabreichung durchgeführt, wobei der Blutdruck jeweils im Sitzen gemessen wurde.
Als "Ansprechen" auf eine Therapie wurde in dieser Studie eine Senkung des diastolischen Blutdrucks auf unter 90 mmHg defineriert.

For assay [3], the system named is Patienten, deren Bluthochdruck mit Captopril behandelt wird. To be noted: added to Captopril treatment; Amery et al., Clinical Science 61 (1981); cited from earlier work.

As for `CCOC(=O)[C@H](CCc1ccccc1)N[C@H]1CCCN2CCC[C@@H](C(=O)O)N2C1=O` [Cilazapril, 9(S)-[1-(S)-Aethoxycarbonyl-3-phenylpropylamino]octahydro-10-oxo-6H-pyridazo[1,2-a]-[1,2]diazepin-1(S)-carbonsäure], the “Diastolische Blutdruckwerte am 7. Versuchstag, Mittelwert” value in assay [1] (1 Std) amounted to 72 mmHg; in assay [1] (2 Std) it was 69 mmHg; in assay [1] (6 Std) it was 63 mmHg; in assay [1] (8 Std), 66 mmHg; in assay [1] (24 Std), 74 mmHg; in assay [1] (-2 Std), 73 mmHg. Besides, the “Systolische Blutdruckwerte am 7. Versuchstag, Mittelwert” value in assay [1] (1 Std) was found to be 109 mmHg; in assay [1] (2 Std), 104 mmHg; in assay [1] (6 Std), 107 mmHg; in assay [1] (8 Std), 108 mmHg; in assay [1] (24 Std), 118 mmHg; in assay [1] (-2 Std), 109 mmHg. Besides, in assay [1], the “Abfall des systolischen und diastolischen Blutdrucks” value is given as “ca. 7 mmHg”. Further, the “Zunahme der Herzfrequenz” value in assay [1] (Monotherapie, 2,5 mg Cilazapril, day 7) is on record as “ca. 5 Schläge/Minute”. Also, the “mittlere Senkung des diastolischen Blutdrucks” value in assay [2] is 8 mmHg. In addition, the “Ansprechen (Senkung des diastolischen Blutdrucks auf unter 90 mmHg)” value in assay [2] worked out at 4 von 13 Patienten.

For the molecule `CC(C)NCC(O)COc1cccc2ccccc12` (stereo not drawn) [Propranolol], the “Diastolische Blutdruckwerte am 7. Versuchstag, Mittelwert” value in assay [1] (1 Std) amounted to 63 mmHg; in assay [1] (2 Std), 67 mmHg; in assay [1] (6 Std), 60 mmHg; in assay [1] (8 Std) it was 65 mmHg; in assay [1] (24 Std), 76 mmHg; in assay [1] (-2 Std), 72 mmHg. The “Systolische Blutdruckwerte am 7. Versuchstag, Mittelwert” value in assay [1] (1 Std) is reported as 106 mmHg; in assay [1] (2 Std) it was 106 mmHg; in assay [1] (6 Std) it was 110 mmHg; in assay [1] (8 Std), 108 mmHg; in assay [1] (24 Std), 115 mmHg; in assay [1] (-2 Std) it was 111 mmHg. In addition, in assay [1], the “Abfall des systolischen und diastolischen Blutdrucks” value is “ca. 7 mmHg”. Further, the “Abnahme der Herzfrequenz” value in assay [1] (Monotherapie, 120 mg Propranolol, day 7) is “ca. 8 Schläge/Minute”. In assay [2], the “mittlere Senkung des diastolischen Blutdrucks” value is 9 mmHg. The “Ansprechen (Senkung des diastolischen Blutdrucks auf unter 90 mmHg)” value in assay [2] came to 2 von 13 Patienten. The “Blood pressure effect of additional Propranolol” value in assay [3] is “eine weitere Blutdrucksenkung”.

Source of the values: patent publication EP0334164A2, “Antihypertensive combination preparation” (F. HOFFMANN-LA ROCHE AG, priority 1988, dated 1989).
